Results from US20260151316A1, “FIBRILLIN PRODUCTION PROMOTER, COSMETIC COMPOSITION OR SKIN TOPICAL AGENT, ORALLY ADMINISTERED AGENT, AND ELASTIN FIBER PRODUCTION PROMOTER” (YAMASA CORPORATION, priority 2022, published 2026).

Experiments:
[1] = test system: fibrillin-1 production in normal human fibroblasts (NHDF); test: Fibrillin-1 quantification by ELISA, direct treatment of normal human fibroblasts with sample; format: cell-based; details: Example 1, FIG. 1 versus FIG. 2 (direct treatment and K-CM)
Experimental: Normal human fibroblasts (NHDF; Kurabo) were seeded in a 96-well plate at a density of 2.55×10^4 cells/well/100 μL and cultured at 37° C. for 24 hours. The medium was then replaced with 100 μL of media (HuMedia-KG2; Kurabo) adjusted to contain 0, 2.5, 5 (mM) (i.e., 0, 0.0918, 0.184 (w/v %) ) of CMP, 2Na and 0, 2.5, 5 (MM) (i.e., 0, 0.092, 0.184 (w/v %) ) of UMP, 2Na, and cultured for 24 hours.
The culture supernatant from normal human fibroblasts was collected and an amount of fibrillin-1 was quantified by ELISA. The protein amount of the culture supernatant was also measured by BCA protein assay.

[2] = test system: Fibrillin-1 (FBN-1) mRNA in normal human fibroblasts; test: FBN-1 mRNA expression by real time PCR in fibroblasts treated with culture supernatant from three-dimensional cultured epidermis; format: cell-based; details: CMP, 2Na 1.0 and 2.0 (w/v %) applied to three-dimensional cultured epidermis; supernatant on NHDF; GAPDH as control
Experimental: The mRNA expression level of Fibrillin 1(FBN1 ), a factor related to elastin synthesis, was quantified by real-time PCR. Three-dimensional cultured epidermis (LabCyte EPI MODEL 24; manufactured by J TEC) was set in a 24-well plate to which 500 μL of the attached assay medium was added, and conditioned overnight at 37° C. 50 μL of sample-containing PBS (−) was applied from the stratum corneum side and cultured for 24 hours. After removing the sample-containing PBS (−), the plate was washed with PBS (−). The medium was replaced with a fresh medium, 50 μL of sample-containing PBS (−) was newly applied from the stratum corneum side, and further cultured for 48 hours. After culturing, the culture supernatant was collected. The concentrations of CMP, 2Na in the respective samples were 0, 1.0, and 2.0 (w/v %), respectively. Normal human fibroblasts were treated with the culture supernatant by the same method as that of Example 1. RNA was extracted from NHDF using RNeasy Mini Kit (QIAGEN), and mRNA expression analysis for Fibrillin-1 (FBN-1) was performed by real time PCR ([…]). Glyceraldehyde 3-phosphate dehydrogenase (GAPDH) was used as an endogenous control.

[3] = test system: elastin fibers in freshly extracted human skin; test: Ex vivo evaluation test using freshly extracted human skin, elastica-van Gieson staining of elastin fibers; details: abdominal skin, CMP, 2Na 1.0 and 2.0 (w/v %) applied from the stratum corneum side, 72 hours
Experimental: Abdominal skin tissue was used, which was taken from a patient during cosmetic surgery, after obtaining informed consent for use in research. The extracted skin was placed in a culture plate supplemented with 1.3 ml of D-MEM/Ham's F-12 medium, and conditioned overnight at 37° C. in 5% CO2. An appropriate amount of PBS (−) containing a given concentration of each sample was applied from the stratum corneum side, and further cultured for 24 hours. The treatment was continued for a total of 72 hours while replacing the sample and medium with fresh ones every 24 hours. The concentrations of CMP, 2Na in the respective samples were 0, 1.0, and 2.0 (w/v %). After the cultured skin tissue was fixed according to a standard method, skin tissue sections were prepared, elastin fibers were stained with elastica-van Gieson stain, and observed under a microscope.

Row | SMILES | effect of promoting fibrillin production, cytidylic acid treatment compared with uridylic acid treatment [1] | expression level of FBN-1 mRNA [2] | density of elastin fibers (elastica-van Gieson staining) [3]
1 | Nc1ccn([C@@H]2O[C@H](COP(=O)(O)O)[C@@H](O)[C@H]2O)c(=O)n1 [cytidylic acid] | comparable | increased, depending on the concentration | tended to result in denser elastin fibers
2 | O=c1ccn([C@@H]2O[C@H](COP(=O)(O)O)[C@@H](O)[C@H]2O)c(=O)[nH]1 [uridylic acid] | comparable | – | –
